Experimental data from ChEMBL document CHEMBL3751806, “Synthesis, experimental evaluation and molecular modelling of hydroxamate derivatives as zinc metalloproteinase inhibitors” (Eur J Med Chem, 2016).

Experiments:
[1] = target: 72 kDa type IV collagenase (Homo sapiens, UniProt P08253); test: Inhibition of recombinant human MMP2 after 2 hrs using FS-6 as substrate by fluorometry
Thermolysin [2] = target: T1, Thermolysin (Bacillus thermoproteolyticus, UniProt P00800); test: Inhibition of Bacillus thermoproteolyticus thermolysin pretreated with compound for 15 mins followed by the addition of 75 uM Abz-Ala-Gly-leu-Ala-p-nitrobenzalamide as substrate by spectrofluorometry
T1 sequence (P00800 whole entry): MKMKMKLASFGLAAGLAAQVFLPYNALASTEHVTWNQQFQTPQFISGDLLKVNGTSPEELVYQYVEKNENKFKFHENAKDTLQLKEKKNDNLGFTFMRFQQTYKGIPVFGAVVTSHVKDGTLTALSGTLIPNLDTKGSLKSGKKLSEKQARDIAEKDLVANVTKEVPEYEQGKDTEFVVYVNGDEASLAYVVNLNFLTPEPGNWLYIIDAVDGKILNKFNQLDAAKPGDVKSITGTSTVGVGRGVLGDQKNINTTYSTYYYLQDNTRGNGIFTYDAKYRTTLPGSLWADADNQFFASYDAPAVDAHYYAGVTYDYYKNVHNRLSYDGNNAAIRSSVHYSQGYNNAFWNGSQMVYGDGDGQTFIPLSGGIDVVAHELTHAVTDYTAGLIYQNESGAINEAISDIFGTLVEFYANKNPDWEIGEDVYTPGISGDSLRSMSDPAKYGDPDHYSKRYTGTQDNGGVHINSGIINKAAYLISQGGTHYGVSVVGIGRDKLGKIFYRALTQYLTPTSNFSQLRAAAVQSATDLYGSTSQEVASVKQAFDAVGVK

[3] = target: Thermolysin (Bacillus thermoproteolyticus) (UniProt P00800); test: Inhibition of Bacillus thermoproteolyticus thermolysin pretreated with compound for 15 mins followed by the addition of Abz-Ala-Gly-leu-Ala-p-nitrobenzalamide as substrate by spectrofluorometry
Thermolysin [4] = target: T1, Thermolysin; test: Inhibition of Bacillus thermoproteolyticus thermolysin pretreated with compound for 1 hr followed by the addition of 3.33 uM bradykinin like substrate by spectrofluorometry assay
Elastase = Elastase (Pseudomonas aeruginosa (strain ATCC 15692 / PAO1 / 1C / PRS 101 / LMG12228), UniProt P14756); test: Inhibition of Pseudomonas aeruginosa pseudolysin pretreated with compound for 1 hr followed by the addition of 1.73 uM bradykinin like substrate by spectrofluorometry
[5] = target: Matrix metalloproteinase-9 (Homo sapiens, UniProt P14780); test: Inhibition of recombinant human MMP9 after 2 hrs using FS-6 as substrate by fluorometry
[6] = target: Disintegrin and metalloproteinase domain-containing protein 17 (Homo sapiens, UniProt P78536); test: Inhibition of recombinant human ADAM17 after 30 mins using FS-6 as substrate by fluorometry
Chain of Disintegrin and metalloproteinase domain-containing protein 17 (P78536 whole entry, the tested form may be a part): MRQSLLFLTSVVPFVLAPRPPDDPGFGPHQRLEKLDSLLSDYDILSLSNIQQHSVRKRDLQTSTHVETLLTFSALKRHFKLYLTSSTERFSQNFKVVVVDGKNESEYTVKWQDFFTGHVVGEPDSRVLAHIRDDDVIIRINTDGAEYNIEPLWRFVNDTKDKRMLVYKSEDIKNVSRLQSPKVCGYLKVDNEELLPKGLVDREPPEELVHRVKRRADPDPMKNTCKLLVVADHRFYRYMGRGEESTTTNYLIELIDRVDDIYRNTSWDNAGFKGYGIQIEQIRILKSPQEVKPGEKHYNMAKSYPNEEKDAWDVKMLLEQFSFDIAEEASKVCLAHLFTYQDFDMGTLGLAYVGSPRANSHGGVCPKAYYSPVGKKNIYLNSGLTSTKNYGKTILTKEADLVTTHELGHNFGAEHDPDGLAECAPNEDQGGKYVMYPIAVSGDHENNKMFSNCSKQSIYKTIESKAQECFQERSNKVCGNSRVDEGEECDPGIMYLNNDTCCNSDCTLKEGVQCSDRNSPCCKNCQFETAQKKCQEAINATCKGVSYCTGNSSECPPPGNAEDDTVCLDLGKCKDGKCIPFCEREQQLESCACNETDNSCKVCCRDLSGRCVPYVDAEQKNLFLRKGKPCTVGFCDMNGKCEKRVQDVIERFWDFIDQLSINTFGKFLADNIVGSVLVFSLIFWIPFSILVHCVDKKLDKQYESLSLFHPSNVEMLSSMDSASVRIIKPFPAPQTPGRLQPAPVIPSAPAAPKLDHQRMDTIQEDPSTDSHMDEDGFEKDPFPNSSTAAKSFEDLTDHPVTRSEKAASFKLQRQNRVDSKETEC

Chain of Elastase (P14756 whole entry): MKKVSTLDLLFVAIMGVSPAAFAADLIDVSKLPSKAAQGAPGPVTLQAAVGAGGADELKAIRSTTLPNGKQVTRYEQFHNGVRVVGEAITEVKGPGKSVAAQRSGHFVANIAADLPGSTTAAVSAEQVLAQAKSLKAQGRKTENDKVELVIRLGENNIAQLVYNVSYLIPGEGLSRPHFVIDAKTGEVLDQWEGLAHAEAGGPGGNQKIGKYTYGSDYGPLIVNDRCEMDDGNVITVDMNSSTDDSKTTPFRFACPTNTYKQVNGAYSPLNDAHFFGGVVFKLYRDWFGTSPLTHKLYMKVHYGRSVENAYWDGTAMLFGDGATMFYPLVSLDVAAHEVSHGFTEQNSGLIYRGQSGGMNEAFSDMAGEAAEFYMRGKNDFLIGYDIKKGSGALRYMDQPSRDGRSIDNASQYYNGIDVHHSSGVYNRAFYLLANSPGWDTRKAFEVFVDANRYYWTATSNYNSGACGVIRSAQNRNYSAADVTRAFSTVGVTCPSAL
Chain of 72 kDa type IV collagenase (P08253 whole entry): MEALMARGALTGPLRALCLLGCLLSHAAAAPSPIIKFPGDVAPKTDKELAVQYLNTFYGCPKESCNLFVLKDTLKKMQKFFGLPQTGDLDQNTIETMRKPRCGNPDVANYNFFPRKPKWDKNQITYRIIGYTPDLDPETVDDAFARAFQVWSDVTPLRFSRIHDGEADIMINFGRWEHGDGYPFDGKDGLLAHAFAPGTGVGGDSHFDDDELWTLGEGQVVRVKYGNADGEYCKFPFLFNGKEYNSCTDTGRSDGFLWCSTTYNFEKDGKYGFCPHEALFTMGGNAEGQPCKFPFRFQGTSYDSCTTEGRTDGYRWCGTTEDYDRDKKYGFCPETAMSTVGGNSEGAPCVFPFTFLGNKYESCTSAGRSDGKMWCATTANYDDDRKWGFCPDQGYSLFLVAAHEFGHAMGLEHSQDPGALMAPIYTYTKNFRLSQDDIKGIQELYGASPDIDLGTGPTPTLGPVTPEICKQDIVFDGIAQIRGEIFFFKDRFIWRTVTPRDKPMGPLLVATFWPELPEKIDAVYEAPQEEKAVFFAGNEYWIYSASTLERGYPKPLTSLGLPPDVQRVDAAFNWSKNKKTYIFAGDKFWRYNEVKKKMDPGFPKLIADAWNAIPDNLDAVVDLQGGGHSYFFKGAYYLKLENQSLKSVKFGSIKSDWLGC
Chain of Matrix metalloproteinase-9 (P14780 whole entry, the tested form may be a part): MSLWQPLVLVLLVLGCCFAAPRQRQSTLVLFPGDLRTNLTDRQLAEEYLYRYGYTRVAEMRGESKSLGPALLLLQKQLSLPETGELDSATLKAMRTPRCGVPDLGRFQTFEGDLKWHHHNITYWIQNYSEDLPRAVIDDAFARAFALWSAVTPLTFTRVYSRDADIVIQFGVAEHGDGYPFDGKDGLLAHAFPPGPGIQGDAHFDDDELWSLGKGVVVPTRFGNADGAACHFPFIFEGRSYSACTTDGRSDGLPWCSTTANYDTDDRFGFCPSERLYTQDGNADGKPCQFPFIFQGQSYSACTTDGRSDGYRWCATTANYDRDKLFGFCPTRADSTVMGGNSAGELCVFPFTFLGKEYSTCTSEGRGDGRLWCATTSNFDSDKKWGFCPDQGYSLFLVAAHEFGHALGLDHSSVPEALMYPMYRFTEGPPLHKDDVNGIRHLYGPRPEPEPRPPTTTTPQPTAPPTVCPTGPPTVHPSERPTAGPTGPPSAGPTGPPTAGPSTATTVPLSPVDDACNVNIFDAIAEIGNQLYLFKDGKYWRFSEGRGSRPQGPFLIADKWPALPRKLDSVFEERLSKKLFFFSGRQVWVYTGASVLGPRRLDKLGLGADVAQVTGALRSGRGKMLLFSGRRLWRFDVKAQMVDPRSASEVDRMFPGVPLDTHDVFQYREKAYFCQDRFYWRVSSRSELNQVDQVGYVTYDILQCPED

| Compound | IC50 [1] | IC50 (Thermolysin [2]) | IC50 [3] | IC50 (Thermolysin [4]) | IC50 (Elastase) | IC50 [5] | IC50 [6] |
| --- | --- | --- | --- | --- | --- | --- | --- |
| O=C(CCNS(=O)(=O)c1ccc(-c2ccccc2)cc1)NO | 2.4 µM | 30 µM | 30 µM | 30 µM | 79 µM | 26 µM |  |
| O=C(N[C@H](CCN1C(=O)c2ccccc2C1=O)C(=O)NO)c1ccc(Oc2ccccc2)cc1 | 9 µM |  | 16 µM |  |  | 8.2 µM | 9.5 µM |
| COc1ccc(S(=O)(=O)N(CC(C)C)[C@@H](C(=O)NO)C(C)C)cc1 |  |  | 103 µM |  |  |  |  |
| COc1ccc(S(=O)(=O)c2ccccc2CC(=O)NO)cc1 |  |  | 17 µM | 146 µM | 29 µM |  | 67 µM |
| COc1ccc(S(=O)(=O)N(CC(=O)NO)OC23CC4CC(CC(C4)C2)C3)cc1 | 2 µM |  |  |  |  | 2 µM |  |
| CC(C)CN([C@@H](C(=O)NO)C(C)C)S(=O)(=O)c1ccc(-c2ccccc2)cc1 | 0.003 µM |  |  |  |  | 0.0053 µM |  |
| O=C(Cc1ccccc1S(=O)(=O)c1ccc(OCCCN2C(=O)c3ccccc3C2=O)cc1)NO | > 10 µM |  | 7 µM | 132 µM | 38 µM | > 10 µM | 150 µM |
| CC(C)ON(CC(=O)NO)S(=O)(=O)c1ccc(Br)s1 | 1.1 µM | 29 µM | 3.3 µM | 29 µM | 31 µM | 6.2 µM | 114 µM |
| CCCCC(NOCc1ccccc1)C(=O)NO (configuration not stated) |  |  | 1.1 µM | 9.5 µM | 1.9 µM |  | 100 µM |
| CC(C)ON([C@@H](C(=O)NO)C(C)C)S(=O)(=O)c1ccc(-c2ccccc2)cc1 |  |  |  |  |  |  | 14 µM |
